Like-named read-outs stand apart in the source and are kept apart here. Positions of bridges follow the written chain, without caps; N, C: chain ends. Non-standard residues stand in square brackets, D forms with d. Residues, ends and D or L forms follow the SMILES beside them. Cha = N[C@@H](CC1CCCCC1)C(=O)O
Columns and labels:
Test in all cases: cell-based
hNav1.7 = hNav1.7 (Homo sapiens, UniProt Q15858); type: cell-based
hNav1.5 = hNav1.5 (Homo sapiens, UniProt Q14524)
hNav1.3 = hNav1.3 (Homo sapiens, UniProt Q9NY46); settings: IonWorks Quattro, use-dependent protocol, hNav1.3; read-out: IWQ Use Nav1.3
Chain of hNav1.3 (Q9NY46 whole entry, looked up): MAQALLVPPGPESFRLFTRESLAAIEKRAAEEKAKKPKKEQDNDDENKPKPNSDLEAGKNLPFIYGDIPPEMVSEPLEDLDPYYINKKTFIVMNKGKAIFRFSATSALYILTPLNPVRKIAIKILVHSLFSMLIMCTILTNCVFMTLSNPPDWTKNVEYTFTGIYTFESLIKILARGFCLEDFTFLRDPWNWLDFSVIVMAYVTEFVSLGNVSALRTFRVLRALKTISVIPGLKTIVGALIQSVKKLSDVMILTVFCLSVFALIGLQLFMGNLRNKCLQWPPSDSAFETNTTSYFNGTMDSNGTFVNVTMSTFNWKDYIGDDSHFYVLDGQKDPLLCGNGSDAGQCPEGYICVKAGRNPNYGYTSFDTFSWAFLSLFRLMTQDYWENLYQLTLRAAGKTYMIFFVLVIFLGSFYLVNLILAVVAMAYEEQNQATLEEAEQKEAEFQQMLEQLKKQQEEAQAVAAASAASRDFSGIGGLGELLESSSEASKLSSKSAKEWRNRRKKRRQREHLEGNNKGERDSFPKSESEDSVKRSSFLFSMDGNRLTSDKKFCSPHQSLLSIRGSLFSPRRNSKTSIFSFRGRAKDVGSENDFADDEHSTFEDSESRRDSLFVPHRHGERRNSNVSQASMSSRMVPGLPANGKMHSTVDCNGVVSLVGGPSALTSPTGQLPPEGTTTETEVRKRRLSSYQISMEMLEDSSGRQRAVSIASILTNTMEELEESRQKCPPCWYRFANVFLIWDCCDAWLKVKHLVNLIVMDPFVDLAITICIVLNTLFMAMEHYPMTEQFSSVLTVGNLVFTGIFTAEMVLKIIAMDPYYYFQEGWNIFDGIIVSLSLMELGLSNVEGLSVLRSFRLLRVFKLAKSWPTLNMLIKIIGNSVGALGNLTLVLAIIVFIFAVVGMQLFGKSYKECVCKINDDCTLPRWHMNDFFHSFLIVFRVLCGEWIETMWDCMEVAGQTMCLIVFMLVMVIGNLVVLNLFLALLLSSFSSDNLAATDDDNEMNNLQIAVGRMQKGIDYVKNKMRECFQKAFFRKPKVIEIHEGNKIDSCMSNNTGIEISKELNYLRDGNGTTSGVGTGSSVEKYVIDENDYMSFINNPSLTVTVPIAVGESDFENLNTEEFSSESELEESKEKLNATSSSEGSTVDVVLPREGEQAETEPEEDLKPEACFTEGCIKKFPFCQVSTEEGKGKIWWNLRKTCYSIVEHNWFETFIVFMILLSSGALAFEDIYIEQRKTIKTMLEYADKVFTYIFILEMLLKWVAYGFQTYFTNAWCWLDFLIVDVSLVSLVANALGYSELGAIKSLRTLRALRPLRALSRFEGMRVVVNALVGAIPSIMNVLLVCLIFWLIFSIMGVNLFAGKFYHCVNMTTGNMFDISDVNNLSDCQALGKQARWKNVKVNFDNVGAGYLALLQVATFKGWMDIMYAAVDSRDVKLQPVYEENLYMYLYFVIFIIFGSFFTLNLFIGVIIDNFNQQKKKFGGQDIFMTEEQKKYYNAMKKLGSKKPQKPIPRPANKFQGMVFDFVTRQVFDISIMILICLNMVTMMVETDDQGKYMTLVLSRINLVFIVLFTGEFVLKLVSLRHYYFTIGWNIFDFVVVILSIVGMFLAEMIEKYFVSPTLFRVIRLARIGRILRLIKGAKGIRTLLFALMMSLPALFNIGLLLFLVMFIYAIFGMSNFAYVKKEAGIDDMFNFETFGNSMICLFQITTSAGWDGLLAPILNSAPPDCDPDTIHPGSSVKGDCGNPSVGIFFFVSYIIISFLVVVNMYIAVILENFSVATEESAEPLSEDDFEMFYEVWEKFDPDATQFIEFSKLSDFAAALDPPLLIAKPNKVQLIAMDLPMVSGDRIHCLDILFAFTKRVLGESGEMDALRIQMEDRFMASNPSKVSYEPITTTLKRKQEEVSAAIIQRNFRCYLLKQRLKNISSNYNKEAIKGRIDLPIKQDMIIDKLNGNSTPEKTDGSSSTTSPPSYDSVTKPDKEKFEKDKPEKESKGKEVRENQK

[1] = IonWorks Quattro, use-dependent protocol, hNav1.5, read-out: IWQ Use Nav1.5
[2] = IonWorks Quattro, use-dependent protocol, hNav1.7, read-out: IWQ Use Nav1.7

Chain of hNav1.7 (Q15858 whole entry, looked up): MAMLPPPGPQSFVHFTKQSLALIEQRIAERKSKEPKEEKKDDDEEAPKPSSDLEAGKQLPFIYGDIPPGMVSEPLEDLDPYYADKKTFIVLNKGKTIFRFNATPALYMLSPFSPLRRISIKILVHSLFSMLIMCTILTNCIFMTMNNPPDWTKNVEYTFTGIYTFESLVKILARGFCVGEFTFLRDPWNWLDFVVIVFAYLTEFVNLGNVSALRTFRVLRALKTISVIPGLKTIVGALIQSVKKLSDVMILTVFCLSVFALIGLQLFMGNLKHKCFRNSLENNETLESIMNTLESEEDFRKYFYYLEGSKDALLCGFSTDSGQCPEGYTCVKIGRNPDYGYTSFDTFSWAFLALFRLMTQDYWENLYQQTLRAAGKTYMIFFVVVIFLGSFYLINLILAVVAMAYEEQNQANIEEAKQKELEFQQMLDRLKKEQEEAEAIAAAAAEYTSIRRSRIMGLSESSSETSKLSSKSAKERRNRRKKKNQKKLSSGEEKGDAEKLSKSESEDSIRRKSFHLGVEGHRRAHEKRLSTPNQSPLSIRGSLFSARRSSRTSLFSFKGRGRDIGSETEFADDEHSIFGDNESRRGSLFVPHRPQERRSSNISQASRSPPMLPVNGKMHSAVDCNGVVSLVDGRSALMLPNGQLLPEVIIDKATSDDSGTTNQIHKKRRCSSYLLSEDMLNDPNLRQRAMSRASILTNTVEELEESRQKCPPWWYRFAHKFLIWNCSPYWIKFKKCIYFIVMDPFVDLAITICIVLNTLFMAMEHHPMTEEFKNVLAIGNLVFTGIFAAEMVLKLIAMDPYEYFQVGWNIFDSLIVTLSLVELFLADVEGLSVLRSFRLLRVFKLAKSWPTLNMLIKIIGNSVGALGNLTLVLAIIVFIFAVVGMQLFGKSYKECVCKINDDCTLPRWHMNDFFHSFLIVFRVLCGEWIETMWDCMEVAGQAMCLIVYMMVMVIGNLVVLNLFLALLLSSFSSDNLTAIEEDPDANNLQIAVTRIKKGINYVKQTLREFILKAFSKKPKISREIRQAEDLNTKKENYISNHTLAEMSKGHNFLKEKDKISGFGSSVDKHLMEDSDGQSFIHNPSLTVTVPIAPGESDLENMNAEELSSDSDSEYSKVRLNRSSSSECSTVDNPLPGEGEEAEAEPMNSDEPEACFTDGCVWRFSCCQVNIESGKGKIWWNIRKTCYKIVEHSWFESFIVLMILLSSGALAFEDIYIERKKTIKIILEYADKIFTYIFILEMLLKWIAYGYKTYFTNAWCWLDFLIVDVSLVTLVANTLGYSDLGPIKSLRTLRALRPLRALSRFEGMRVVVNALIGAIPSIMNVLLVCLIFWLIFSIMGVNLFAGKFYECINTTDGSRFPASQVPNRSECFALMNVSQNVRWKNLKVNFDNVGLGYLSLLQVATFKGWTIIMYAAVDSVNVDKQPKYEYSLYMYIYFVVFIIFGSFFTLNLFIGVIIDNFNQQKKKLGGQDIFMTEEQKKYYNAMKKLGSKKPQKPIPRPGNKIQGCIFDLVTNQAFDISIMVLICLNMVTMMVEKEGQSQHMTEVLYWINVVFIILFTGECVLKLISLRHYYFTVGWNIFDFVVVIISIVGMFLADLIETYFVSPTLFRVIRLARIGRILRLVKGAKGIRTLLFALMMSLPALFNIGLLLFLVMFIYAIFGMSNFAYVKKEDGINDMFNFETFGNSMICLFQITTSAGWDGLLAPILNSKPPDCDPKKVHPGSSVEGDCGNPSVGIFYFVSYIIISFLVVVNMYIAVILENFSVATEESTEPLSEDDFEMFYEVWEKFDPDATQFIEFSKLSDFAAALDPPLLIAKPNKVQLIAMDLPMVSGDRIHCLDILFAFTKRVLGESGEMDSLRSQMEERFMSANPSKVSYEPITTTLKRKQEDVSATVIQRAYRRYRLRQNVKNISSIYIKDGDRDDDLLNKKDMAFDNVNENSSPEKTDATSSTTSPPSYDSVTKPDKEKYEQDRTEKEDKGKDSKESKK

Row | Structure (SMILES) | IC50 (hNav1.7) [nM] | IC50 (hNav1.5; [1]) [nM] | IC50 (hNav1.3) [nM] | IC50 (hNav1.7; [2]) [nM] | IC50 (hNav1.5; IWQ Use Nav1.5) [nM]
1 | CC[C@H](C)[C@@H]1NC(=O)[C@@H]2CSSC[C@@H]3NC(=O)[C@H](C(C)C)NC(=O)[C@H](CC(C)C)NC(=O)[C@H](CC(N)=O)NC(=O)[C@@H]4CCCN4C(=O)[C@H](CCCNC(=N)N)NC(=O)[C@H](CSSC[C@H](NC(=O)[C@@H](N)CC(=O)O)C(=O)N[C@@H](CC(C)C)C(=O)NCC(=O)N[C@@H](CC4CCCCC4)C(=O)N[C@@H](Cc4ccccc4)C(=O)N[C@@H](CCCNC(=N)N)C(=O)N[C@@H](CCCCN)C(=O)N2)NC(=O)[C@H](CSSC[C@@H](C(=O)N[C@@H](CCCCN)C(=O)N[C@@H](Cc2ccc(O)cc2)C(=O)N[C@H](C(=O)N[C@@H](Cc2ccccc2)C(N)=O)C(C)C)NC(=O)[C@H](Cc2c[nH]c4ccccc24)NC(=O)[C@H](CCCCN)NC(=O)[C@H](Cc2c[nH]cn2)NC(=O)[C@H]([C@@H](C)O)NC(=O)[C@H](CCCNC(=N)N)NC(=O)[C@H](CO)NC3=O)NC(=O)[C@H](CCCCN)NC(=O)[C@H](CC(=O)O)NC(=O)[C@H](CC(N)=O)NC(=O)[C@H](CC(=O)O)NC(=O)[C@@H]2CCCN2C1=O [compound 680] (H-DCLG[Cha]FRKCIPDNDKCCRPNLVCSRTHKWCKYVF-NH2; disulfide 2-17, 9-23, 16-30) | 19 | 3500 | 32 |  | 
2 | CC[C@H](C)[C@@H]1NC(=O)[C@@H]2CSSC[C@@H]3NC(=O)[C@H](C(C)C)NC(=O)[C@H](CC(C)C)NC(=O)[C@H](CC(N)=O)NC(=O)[C@@H]4CCCN4C(=O)[C@H](CCCNC(=N)N)NC(=O)[C@H](CSSC[C@H](NC(=O)[C@@H](N)CC(=O)O)C(=O)N[C@@H](CC(C)C)C(=O)NCC(=O)N[C@@H](CC4CCCCC4)C(=O)N[C@@H](CC(C)C)C(=O)N[C@@H](CCCNC(=N)N)C(=O)N[C@@H](CCCCN)C(=O)N2)NC(=O)[C@H](CSSC[C@@H](C(=O)N[C@@H](CCCCN)C(=O)N[C@@H](Cc2ccc(O)cc2)C(=O)N[C@H](C(=O)N[C@@H](Cc2ccccc2)C(N)=O)C(C)C)NC(=O)[C@H](Cc2c[nH]c4ccccc24)NC(=O)[C@H](CCCCN)NC(=O)[C@H](Cc2c[nH]cn2)NC(=O)[C@H]([C@@H](C)O)NC(=O)[C@H](CCCNC(=N)N)NC(=O)[C@H](CO)NC3=O)NC(=O)[C@H](CCCCN)NC(=O)[C@H](CC(=O)O)NC(=O)[C@H](CC(N)=O)NC(=O)[C@H](CC(=O)O)NC(=O)[C@@H]2CCCN2C1=O [compound 681] |  | > 5000 | 79 | 23 | 
3 | CC[C@H](C)[C@@H]1NC(=O)[C@@H]2CSSC[C@@H]3NC(=O)[C@H](C(C)C)NC(=O)[C@H](CC(C)C)NC(=O)[C@H](CC(N)=O)NC(=O)[C@@H]4CCCN4C(=O)[C@H](CCCNC(=N)N)NC(=O)[C@H](CSSC[C@H](NC(=O)[C@@H](N)CC(=O)O)C(=O)N[C@@H](CC(C)C)C(=O)NCC(=O)N[C@@H](Cc4cccs4)C(=O)N[C@@H](CCSC)C(=O)N[C@@H](CCCNC(=N)N)C(=O)N[C@@H](CCCCN)C(=O)N2)NC(=O)[C@H](CSSC[C@@H](C(=O)N[C@@H](CCCCN)C(=O)N[C@@H](Cc2ccc(O)cc2)C(=O)N[C@H](C(=O)N[C@@H](Cc2ccccc2)C(N)=O)C(C)C)NC(=O)[C@H](Cc2c[nH]c4ccccc24)NC(=O)[C@H](CCCCN)NC(=O)[C@H](Cc2c[nH]cn2)NC(=O)[C@H]([C@@H](C)O)NC(=O)[C@H](CCCNC(=N)N)NC(=O)[C@H](CO)NC3=O)NC(=O)[C@H](CCCCN)NC(=O)[C@H](CC(=O)O)NC(=O)[C@H](CC(N)=O)NC(=O)[C@H](CC(=O)O)NC(=O)[C@@H]2CCCN2C1=O [compound 682] |  | > 5000 | 280 | 110 | 
4 | CC[C@H](C)[C@@H]1NC(=O)[C@@H]2CSSC[C@@H]3NC(=O)[C@H](C(C)C)NC(=O)[C@H](CC(C)C)NC(=O)[C@H](CC(N)=O)NC(=O)[C@@H]4CCCN4C(=O)[C@H](CCCNC(=N)N)NC(=O)[C@H](CSSC[C@H](NC(=O)[C@@H](N)CC(=O)O)C(=O)N[C@@H](CC(C)C)C(=O)NCC(=O)N[C@@H](C4CCCC4)C(=O)N[C@@H](CCSC)C(=O)N[C@@H](CCCNC(=N)N)C(=O)N[C@@H](CCCCN)C(=O)N2)NC(=O)[C@H](CSSC[C@@H](C(=O)N[C@@H](CCCCN)C(=O)N[C@@H](Cc2ccc(O)cc2)C(=O)N[C@H](C(=O)N[C@@H](Cc2ccccc2)C(N)=O)C(C)C)NC(=O)[C@H](Cc2c[nH]c4ccccc24)NC(=O)[C@H](CCCCN)NC(=O)[C@H](Cc2cnc[nH]2)NC(=O)[C@H]([C@@H](C)O)NC(=O)[C@H](CCCNC(=N)N)NC(=O)[C@H](CO)NC3=O)NC(=O)[C@H](CCCCN)NC(=O)[C@H](CC(=O)O)NC(=O)[C@H](CC(N)=O)NC(=O)[C@H](CC(=O)O)NC(=O)[C@@H]2CCCN2C1=O [compound 683] |  |  | 630 | 230 | > 5000
5 | CC[C@H](C)[C@@H]1NC(=O)[C@@H]2CSSC[C@@H]3NC(=O)[C@H](C(C)C)NC(=O)[C@H](CC(C)C)NC(=O)[C@H](CC(N)=O)NC(=O)[C@@H]4CCCN4C(=O)[C@H](CCCNC(=N)N)NC(=O)[C@H](CSSC[C@H](NC(=O)[C@@H](N)CC(=O)O)C(=O)N[C@@H](CC(C)C)C(=O)NCC(=O)N[C@@H](C4CCCCC4)C(=O)N[C@@H](CCSC)C(=O)N[C@@H](CCCNC(=N)N)C(=O)N[C@@H](CCCCN)C(=O)N2)NC(=O)[C@H](CSSC[C@@H](C(=O)N[C@@H](CCCCN)C(=O)N[C@@H](Cc2ccc(O)cc2)C(=O)N[C@H](C(=O)N[C@@H](Cc2ccccc2)C(N)=O)C(C)C)NC(=O)[C@H](Cc2c[nH]c4ccccc24)NC(=O)[C@H](CCCCN)NC(=O)[C@H](Cc2cnc[nH]2)NC(=O)[C@H]([C@@H](C)O)NC(=O)[C@H](CCCNC(=N)N)NC(=O)[C@H](CO)NC3=O)NC(=O)[C@H](CCCCN)NC(=O)[C@H](CC(=O)O)NC(=O)[C@H](CC(N)=O)NC(=O)[C@H](CC(=O)O)NC(=O)[C@@H]2CCCN2C1=O [compound 684] |  | > 5000 | 360 | 130 | 
6 | CC[C@H](C)[C@@H]1NC(=O)[C@@H]2CSSC[C@@H]3NC(=O)[C@H](C(C)C)NC(=O)[C@H](CC(C)C)NC(=O)[C@H](CC(N)=O)NC(=O)[C@@H]4CCCN4C(=O)[C@H](CCCNC(=N)N)NC(=O)[C@H](CSSC[C@H](NC(=O)[C@@H](N)CC(=O)O)C(=O)N[C@@H](CC(C)C)C(=O)NCC(=O)N[C@@H](Cc4ccc(C(=O)c5ccccc5)cc4)C(=O)N[C@@H](CCSC)C(=O)N[C@@H](CCCNC(=N)N)C(=O)N[C@@H](CCCCN)C(=O)N2)NC(=O)[C@H](CSSC[C@@H](C(=O)N[C@@H](CCCCN)C(=O)N[C@@H](Cc2ccc(O)cc2)C(=O)N[C@H](C(=O)N[C@@H](Cc2ccccc2)C(N)=O)C(C)C)NC(=O)[C@H](Cc2c[nH]c4ccccc24)NC(=O)[C@H](CCCCN)NC(=O)[C@H](Cc2c[nH]cn2)NC(=O)[C@H]([C@@H](C)O)NC(=O)[C@H](CCCNC(=N)N)NC(=O)[C@H](CO)NC3=O)NC(=O)[C@H](CCCCN)NC(=O)[C@H](CC(=O)O)NC(=O)[C@H](CC(N)=O)NC(=O)[C@H](CC(=O)O)NC(=O)[C@@H]2CCCN2C1=O [compound 685] |  | > 5000 | 150 | 680 | 
7 | CC[C@H](C)[C@@H]1NC(=O)[C@@H]2CSSC[C@@H]3NC(=O)[C@H](C(C)C)NC(=O)[C@H](CC(C)C)NC(=O)[C@H](CC(N)=O)NC(=O)[C@@H]4CCCN4C(=O)[C@H](CCCNC(=N)N)NC(=O)[C@H](CSSC[C@H](NC(=O)[C@@H](N)CC(=O)O)C(=O)N[C@@H](CC(C)C)C(=O)NCC(=O)N[C@@H](Cc4ccc(C)cc4)C(=O)N[C@@H](CCSC)C(=O)N[C@@H](CCCNC(=N)N)C(=O)N[C@@H](CCCCN)C(=O)N2)NC(=O)[C@H](CSSC[C@@H](C(=O)N[C@@H](CCCCN)C(=O)N[C@@H](Cc2ccc(O)cc2)C(=O)N[C@H](C(=O)N[C@@H](Cc2ccccc2)C(N)=O)C(C)C)NC(=O)[C@H](Cc2c[nH]c4ccccc24)NC(=O)[C@H](CCCCN)NC(=O)[C@H](Cc2c[nH]cn2)NC(=O)[C@H]([C@@H](C)O)NC(=O)[C@H](CCCNC(=N)N)NC(=O)[C@H](CO)NC3=O)NC(=O)[C@H](CCCCN)NC(=O)[C@H](CC(=O)O)NC(=O)[C@H](CC(N)=O)NC(=O)[C@H](CC(=O)O)NC(=O)[C@@H]2CCCN2C1=O [compound 686] |  |  | 180 | 490 | > 5000
8 | CC[C@H](C)[C@@H]1NC(=O)[C@@H]2CSSC[C@@H]3NC(=O)[C@H](C(C)C)NC(=O)[C@H](CC(C)C)NC(=O)[C@H](CC(N)=O)NC(=O)[C@@H]4CCCN4C(=O)[C@H](CCCNC(=N)N)NC(=O)[C@H](CSSC[C@H](NC(=O)[C@@H](N)CC(=O)O)C(=O)N[C@@H](CC(C)C)C(=O)NCC(=O)N[C@@H](Cc4ccc(C(C)(C)C)cc4)C(=O)N[C@@H](CCSC)C(=O)N[C@@H](CCCNC(=N)N)C(=O)N[C@@H](CCCCN)C(=O)N2)NC(=O)[C@H](CSSC[C@@H](C(=O)N[C@@H](CCCCN)C(=O)N[C@@H](Cc2ccc(O)cc2)C(=O)N[C@H](C(=O)N[C@@H](Cc2ccccc2)C(N)=O)C(C)C)NC(=O)[C@H](Cc2c[nH]c4ccccc24)NC(=O)[C@H](CCCCN)NC(=O)[C@H](Cc2c[nH]cn2)NC(=O)[C@H]([C@@H](C)O)NC(=O)[C@H](CCCNC(=N)N)NC(=O)[C@H](CO)NC3=O)NC(=O)[C@H](CCCCN)NC(=O)[C@H](CC(=O)O)NC(=O)[C@H](CC(N)=O)NC(=O)[C@H](CC(=O)O)NC(=O)[C@@H]2CCCN2C1=O [compound 687] |  |  | 130 | 270 | > 5000

Reference: patent publication US9340590B2 (priority 2011, dated 2016)
